The values that follow come from patent publication USRE39420E1, “1,2-Diphenylpyrrole derivatives, their preparation and their therapeutic uses” (Sankyo Company, Limited, priority 1996, dated 2006).

Structures are written as SMILES.

Test [1] deals with scald-induced Pain in rats. As to the kind of experiment: Scald-induced pain test. As to conditions: oral; pain response time, mean of 1 and 2 hours after dosing. The format is in vivo, Wistar-Imamichi rats. Here is the method:
The test was conducted in accordance with the method of Iizuka and Tanaka [Jpn. J. Pharmacol. 70, 697, (1967)]. The test compound was administered in the same manner as in Experiment 3. Male Wistar-Imamichi rats (4-5 week old, body weights: approximately 100 g) were used after fasting for 16 hours. The right hind foot of the animal was immersed in hot water at 57° C. for 6 seconds to induce scald under ether-anesthesia. Two hours later, the scald foot of the rat was irritated by immersing in hot water at 40° C. for 5 seconds, and the animal was returned to the cage. […] Lifting up the scalded foot or licking it without coming in contact with the metal cage were considered to be pain responses. Pain response time was determined as the total time of the pain response during the 30-second observation period. […] Pain response time was again measured 1 and 2 hours after dosing and the mean value was determined. Using the mean values, inhibition rates were calculated relative to the control group. ID50 was calculated from the regression line determined by the inhibition rates and the doses.

Another test relates to yeast-induced fever. Nature of the test: Antipyretic effect on yeast-induced fever. As to conditions: Dose: 0.4 mg/kg, oral; mean of 1 and 2 hours after dosing. Type of test: in vivo, Wistar-Imamichi rats. Here is the method:
The method of Roszkowski et al. [J. Pharmacol. Exp. Ther. 179, 114, (1971)] was slightly modified to perform the test. The test compound was administered in the same manner as in Experiment 3. Male Wistar-Imamichi rats (6 week old, body weights: approximately 120 g) were used in the test. Yeast (Brewer's yeast, Sigma) was suspended in physiological saline to a concentration of 25%, finely crushed in an agate mortar, and injected subcutaneously into the backs of the rats under ether-anesthesia at a volume of 2 ml/rat. The rats were fasted after the injection of yeast. On the following day (19 hours after the yeast injection), a catheter-type thermistor thermometer (Japan Koden, MGA III) was inserted approximately 5 cm into the rectum to measure the temperature of the animals. […] Rectal temperatures were measured 1 and 2 hours after administration of the test compound, and fever temperature was calculated by subtracting the normal temperature of healthy animals measured simultaneously. Inhibition rate of the group treated with the compound relative to the control group was calculated by using the mean value at 1 and 2 hours after dosing.

The subject of test [2] is yeast-inflamed pain in rats. As to the kind of experiment: Analgesic effect on yeast-inflamed pain in rats (Randall-Selitto method). Type of test: in vivo, Wistar-Imamichi rats. As to conditions: Rattus norvegicus, oral, pain threshold 0.5, 1 and 2 hours after administration, read-out: Efficacy Rate (No. of animals in which drug was effective/No. of animals used in test) (converted). A digest of the protocol: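 Male Wistar-Imamichi rats were fasted 16 h and given compound orally in 0.5% tragacanth. Paw inflammation was induced by subcutaneous 20% brewer's yeast, and pressure pain threshold was measured from 4.5 h at 0.5, 1 and 2 h. An animal counted as responding if its threshold exceeded twice the control mean, and efficacy rate followed Blake's method.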

Test [3] relates to IL-1β production in human peripheral monocytes. As to the kind of experiment: Inhibitory effect on IL-1β production in LPS-stimulated human peripheral monocytes. As to conditions: Monocyte, LPS 10 μg/ml, 20 hours. Type of test: cell-based. Here is the method:
(§1) (1) Peripheral blood was collected from healthy human volunteers in the presence of heparin. After mixing it with an equal volume of phosphate-buffered saline (PBS, Nissui Pharmaceutical), the mixture was layered onto Ficoll Paque medium (Pharmacia) at the rate of 2:1 and centrifuged at 520×g at 25° C. for 20 minutes. After centrifugation, the monocyte layer was removed and suspended in RPMI 1640 (Nissui Pharmaceutical) containing 10% fetal calf serum (FCS). The monocytes were washed once with the same medium, placed in a plastic Petri dish, pre-treated with human plasma and incubated for 2 hours in the presence of 5% CO2 to cause them to adhere to the dish. After incubation, the Petri dish was washed twice with PBS to remove the non-adherent cells. Thereafter, PBS containing 5% FCS and 0.2% EDTA was added to the Petri dish and the dish was allowed to stand undisturbed for 15 minutes at 4° C. The monocytes were recovered from the dish by pipetting. The cells were finally suspended in RPMI 1640 at a concentration of 1.25×10^5 cells/ml. (2) Culture of Human Monocytes
(§2) A 40 μl solution of the test compound and 40 μl of lipopolysaccharide (LPS; E. coli, 0.26:B6, Difco), adjusted to a final concentration of 10 μg/ml, were added to 320 μl of cell suspension. The resulting mixture was then cultured for 20 hours in the presence of 5% CO2 and the supernatant was removed at the end of cultivation to assay IL-1β and TNFα. The test compound was dissolved in dimethyl sulfoxide and diluted by a factor of 100 with FCS to reach 10 times the final concentration (the final concentrations of dimethyl sulfoxide and FCS were 0.1% and 10%, respectively).
(§3) The amount of IL-1β was measured with a commercially available ELISA kit (Cayman), after diluting the supernatant medium by a factor of 15 or 30 with the ELISA buffer. The amount of TNFα was similarly measured by a ELISA kit (Genzyme) after diluting the supernatant by a factor of 2.
(§4) The IC50 was calculated from the regression line determined by the inhibition rates and the concentrations of the test compound.

Test [4] concerns TNFα production in human peripheral monocytes. Nature of the test: Inhibitory effect on TNFα production in LPS-stimulated human peripheral monocytes. The following applies: Monocyte, LPS 10 μg/ml, 20 hours. Type of test: cell-based. Here is the method: as §1, §2, §3, §4

For `COc1ccc(-c2cc(C)cn2-c2ccc(S(N)(=O)=O)cc2)cc1` [Example 52, 2-(4-Methoxyphenyl)-4-methyl-1-(4-sulfamoylphenyl)pyrrole], in test [1], the “ID50” value amounted to 1.1 mg/kg. Further, the “Inhibition Rate (%)” value in the test on yeast-induced fever stood at 82%. In addition, the responders at 12.5 mg/kg in test [2] was 100%.
For orientation: inhibition means the drop in the measured response relative to a control, in per cent. On to `Cc1ccc(-c2ccccc2)n1-c1ccc(S(N)(=O)=O)cc1` [Compound A, 5-methyl-2-phenyl-1-(4-sulfamoylphenyl)pyrrole, reference compound], for which the values for the inhibition at 10 µM in test [3] and in test [4] were 24.2% and 13.9%, respectively.
